Measured values as given in patent publication US20210177869A1, “METHODS AND COMBINATIONS FOR MODULATING TOLERANCE TO OPIATES, OPIOIDS OR OPIOID ANALGESICS AND TREATING ACUTE AND CHRONIC PAIN” (CHINA MEDICAL UNIVERSITY, priority 2018, published 2021).

Key:
Type in all cases: in vivo
mice [1] = experiment: Mechanical allodynia, von Frey filament test; details: for withdraw threshold in von Frey filament test, compared to vehicle: wild-type mice, SSZ 30 mg/kg/day, morphine 10 mg/kg/day, methadone 5 mg/kg/day or combinations for 8 days; for withdraw threshold in von Frey filament test: WT and xCT KO mice (both genotypes), ip morphine 10 mg/kg/day or methadone 4 mg/kg/day for 7 days
Procedure: (§1) The thermal hyperalgesia was evaluated by placing the mice in a 1000 ml beaker and on the 56±2° C. hot plate with the maximum of 35 second to prevent tissue damage. The time is recorded when the mice jumps on to the edge of the beaker, the value is considered as the withdrawal threshold. A customized transparent acrylic chamber with the size of 20×20×20 cm and 5 mm thick acrylic with 2 mm diameter holes throughout the entire platform is used to determine the mechanical allodynia and thermal hyperalgesia. Mice were placed in the chamber to evaluate the mechanical allodynia by applying a 0.6 g pressure von Frey hair (Touch-Test Sensory Evaluator, North Coast Medical, Inc) to the hind paws of the mice for five times with a five second interval. If the mice hind paw is withdrawn from the platform over three times, the pressure of the von Frey hair will be recorded and regarded as the withdrawal threshold.

mice [2] = experiment: Opioid-induced constipation, fecal collection and stool weight; details: wild-type mice; SSZ 30 mg/kg, morphine 10 mg/kg or combination, ip, 7 days
Procedure: Fecal collections and the stool weighed were recorded before and after morphine and/or SSZ administration. The fecal was collected every two days.
Opioid-induced constipation is a side effect for using opioid pain relief medication.

morphine-dependent mice = experiment: Naloxone-precipitated withdrawal jumping in mice with chronic morphine dependence; details: for naloxone-induced jumping behavior: naloxone 5 mg/kg + SSZ 30 mg/kg or capsazepine 5 mg/kg
Procedure: Chronic morphine dependence was induced by repeated injections for four consecutive days with an escalating dose schedule. Mice received morphine twice daily (morning and afternoon) for 4 days (day 1: 12 mg/kg and 25 mg/kg; day 2: 25 mg/kg and 50 mg/kg; day 3: 50 mg/kg and 75 mg/kg; day 4: 75 mg/kg and 100 mg/kg). On the testing day (day 5), a final morphine dose (50 mg/kg) was administered before exam.
A single dose of naloxone (5 mg/kg) was administered to all mice 60 mins after the final morphine dose. Immediately, following with naloxone injection, animals were placed into individual Plexiglas observation cylinders. Withdrawal jumping response symptoms were recorded and the frequency of jumps for each mouse was summed over one hour.
It was first determined whether system xc^− contributes to opioid dependence. WT and xCT KO mice were received the repeated injections for four consecutive days with an escalating dose schedule for the induction of chronic morphine dependence. Mice received morphine twice daily (morning and afternoon) for 4 days (day 1: 12 mg/kg and 25 mg/kg; day 2: 25 mg/kg and 50 mg/kg; day 3: 50 mg/kg and 75 mg/kg; day 4: 75 mg/kg and 100 mg/kg). On the testing day (day 5), a final morphine dose (50 mg/kg) was administered before naloxone-induced acute withdrawal syndromes. […] To observe the effect of system xc^− inhibits in opioid withdrawal, mice with chronic morphine dependence were randomly divided into the following groups (sample size N=6 in each group): group 1: control mice without any treatment; group 2: morphine-dependent mice with vehicle treatment; group 3: morphine-dependent mice with naloxone (5 mg/kg) treatment; group 4: morphine-dependent mice with naloxone (5 mg/kg)+methadone (10 mg/kg) treatment; group 5: morphine-dependent mice with naloxone (5 mg/kg)+SSZ (30 mg/kg) treatment; and group 6: morphine-dependent mice with naloxone (5 mg/kg)+capsazepine (5 mg/kg).

mice [3] = experiment: Opioid tolerance, morphine percent maximal possible effect (% MPE) over 7 days; details: WT mice; for development of tolerance, in comparison to the morphine alone group / number of days of morphine-induced analgesic effect, in comparison to the morphine alone group: co-treatment with morphine 20 mg/kg/day, SSZ 60 mg/kg/day or capsazepine 10 mg/kg/day, twice daily 7 days
Procedure: To test whether system xc^− plays a role in opioid tolerance, WT and xCT KO mice were injected intraperitoneally with morphine twice daily and tested on 7 days continuously for determination of their respective morphine percent maximal possible effect (% MPE). Analgesic effect was expressed as % MPE, where % MPE=(test−baseline latency)/(cutoff−baseline)×100. […] Next, the WT mice were received the co-administration of system xc^− inhibitor, SSZ or capsazepine, and morphine twice daily for one-week observation.

mice [4] = experiment: Thermal hyperalgesia, hot plate test; details: for latencies of the first sign of pain in the hot-plate test, compared to vehicle: wild-type mice, SSZ 30 mg/kg/day, morphine 10 mg/kg/day, methadone 5 mg/kg/day or combinations for 8 days; for latency of first sign of pain in the hot-plate test: WT and xCT KO mice (both genotypes), ip morphine 10 mg/kg/day or methadone 4 mg/kg/day for 7 days; for analgesic effect in xCT KO mice compared to WT mice: hot plate and von Frey tests, morphine 10 mg/kg/day or methadone 4 mg/kg/day for 7 days
Procedure: as §1

SMILES	withdraw threshold in von Frey filament test, compared to vehicle (mice [1])	opioid-induced constipation / defecation (stool weight) (mice [2])	naloxone-induced jumping behavior (morphine-dependent mice)	development of tolerance, in comparison to the morphine alone group (mice [3])	number of days of morphine-induced analgesic effect, in comparison to the morphine alone group (mice [3])	latencies of the first sign of pain in the hot-plate test, compared to vehicle (mice [4])	withdraw threshold in von Frey filament test (mice [1])	latency of first sign of pain in the hot-plate test (mice [4])	analgesic effect in xCT KO mice compared to WT mice (mice [4])	opioid tolerance (% MPE) (mice [3]; morphine 20 mg/kg/day ip twice daily, 7 days)	jumping behavior (withdrawal) (morphine-dependent mice; naloxone 5 mg/kg, observed one hour)
O=C(O)c1cc(/N=N/c2ccc(S(=O)(=O)Nc3ccccn3)cc2)ccc1O [SSZ, sulfasalazine]	more than those in vehicle-treated mice	didn't decreased or increased defecation	inhibited naloxone-induced jumping behavior	significantly attenuated the development of tolerance	prolong the number of days of morphine-induced analgesic effect	more than those in vehicle-treated mice	–	–	–	–	–
Oc1cc2c(cc1O)CN(C(=S)NCCc1ccc(Cl)cc1)CCC2 [capsazepine]	–	–	inhibited naloxone-induced jumping behavior	significantly attenuated the development of tolerance	prolong the number of days of morphine-induced analgesic effect	–	–	–	–	–	–
CCC(=O)C(CC(C)N(C)C)(c1ccccc1)c1ccccc1 (stereo not shown) [methadone]	more than those in vehicle-treated mice	–	–	–	–	more than those in vehicle-treated mice	significantly increased	significantly increased	higher than that in WT mice	–	–
CN1CC[C@]23c4c5ccc(O)c4O[C@H]2[C@@H](O)C=C[C@H]3[C@H]1C5 [morphine]	more than those in vehicle-treated mice	developed the opioid-induced constipation	–	–	–	more than those in vehicle-treated mice	significantly increased	significantly increased	higher than that in WT mice	significant opioid tolerance on day 3	–
C=CCN1CC[C@]23c4c5ccc(O)c4O[C@H]2C(=O)CC[C@@]3(O)[C@H]1C5 [naloxone]	–	–	–	–	–	–	–	–	–	–	significant jumping behavior compared to other groups
